Legend:
Type in all cases: in vivo
ICR mice [1] = assay: Effective dose and lethal dose of intravenous administration in mice; details: single bolus via tail vein, male ICR mice; for minimal effective dose: Mus musculus, iv, read-out: Effective dose (lowest dose causing the righting reflex to disappear)
Procedure: ICR mice (males, 18-25 g) were randomly grouped and were fast given a single bolus of different doses of test drug via the tail vein, and the lowest dose causing the righting reflex to disappear (effective dose) and the dose causing animal death (lethal dose) were recorded, and the treatment windows (lethal dose/effective dose) were calculated.

ICR mice [2] = assay: Disappearance of righting reflex in mice induced by drugs (single i.v. bolus); details: 100 mg/kg single bolus via tail vein, male ICR mice
Procedure: After ICR mice (male, 18-25 g) were fast injected with the same dose (100 mg/kg) of the test drug in a single bolus via the tail vein, the incubation period and the duration of disappearance of the righting reflex in mice were recorded. Wherein, the incubation period refers to the time from the start of administration to the disappearance of the animal's righting reflex, and the duration refers to the time from the disappearance of the righting reflex to the recovery.

mice [3] = assay: Single i.v. administration: autonomous activity of mice; details: single i.v. 20 mg/kg
Procedure: Animals in each group were tested for their autonomous activities, each mouse for 10 minutes. After that, the animals in each group were given a single corresponding drug solution by the tail vein injection (i.v.) according to the corresponding group, 0.1 ml per 10 g body weight, and the autonomous activity of the mice was measured immediately after the administration, and the recording time was 50 min. Data were expressed as mean±standard deviation. Wherein, the dosage of propofol was 20 mg/kg.

mice [4] = assay: Multiple (9 times) i.v. administrations: duration of disappearance of righting reflex in mice; details: 20 mg/kg i.v.
Procedure: Animals in each group were given the corresponding drug solution multiple times by the tail vein injection (i.v.) in accordance with the corresponding group, 0.1 ml per mouse each time, for 9 times of consecutive injections (the administration group mice were injected when the righting reflex was recovered). The durations of each disappearance of righting reflex were recorded, and the data was expressed as an average.

SMILES | minimal effective dose (ICR mice [1]) [mg/kg] | Lethal dose (dose causing animal death) (ICR mice [1]) [mg/kg] | Treatment window (lethal dose/effective dose) (ICR mice [1]) | Duration (time from disappearance of righting reflex to recovery) (ICR mice [2]) [min] | Incubation period (time from start of administration to disappearance of righting reflex) (ICR mice [2]) [min] | other results
CCOC(=O)CC[C@@H]1N=C(c2cccnc2)c2cc(C)c(F)cc2-n2c(C)cnc21.Cc1ccc(S(=O)(=O)O)cc1 [Compound 1-16] | 40 | 280 | 7 | 9.35 | 0.86 | 
COC(=O)CC[C@@H]1N=C(c2ccccn2)c2cc(F)c(F)cc2-n2c(C)cnc21.Cc1ccc(S(=O)(=O)O)cc1 [Compound 1-11] | 80 | 320 | 4 | 7.28 | 0.53 | 
COC(=O)CC[C@@H]1N=C(c2cccnc2)c2cc(F)c(C(F)(F)F)cc2-n2c(C)cnc21.Cc1ccc(S(=O)(=O)O)cc1 [Compound 1-14] | 100 | 360 | 3.6 | 6.30 | 0.58 | 
COC(=O)CC[C@@H]1N=C(c2ccccn2)c2cc(F)c(C)cc2-n2c(C)cnc21.O=S(=O)(O)c1ccccc1 [Compound 1-1] | 60 | 320 | 5.3 | 7.00 | 0.35 | 
COC(=O)CC[C@@H]1N=C(c2ccccn2)c2cc(C(F)(F)F)c(C)cc2-n2c(C)cnc21.Cc1ccc(S(=O)(=O)O)cc1 [Compound 1-8] | 40 | 260 | 6.5 | 8.60 | 0.55 | 
COC(=O)CC[C@@H]1N=C(c2ccccn2)c2cc(C)c(C)cc2-n2c(C)cnc21.Cc1ccc(S(=O)(=O)O)cc1 [Compound 1-13] | 80 | 320 | 4 |  |  | 
COC(=O)CC[C@@H]1N=C(c2ccccn2)c2cc(OC)c(OC)cc2-n2c(C)cnc21.Cc1ccc(S(=O)(=O)O)cc1 [Compound 1-10] | 80 | 300 | 3.75 | 7.86 | 0.48 | 
CC(C)c1cccc(C(C)C)c1O [Propofol, reference compound] |  |  |  |  |  | time after administration at which mice were awake (mice [3]): 5 to 10 min; time after administration until autonomic activities basically recovered (mice [3]): 15 min; Percentage of extension of righting reflex disappearance (mice [4]; administration 1): 100%; righting reflex disappearance time (mice [4]; administration 1): 4.0 min; Percentage of extension of righting reflex disappearance (mice [4]; administration 2): 144%; righting reflex disappearance time (mice [4]; administration 2): 5.8 min; Percentage of extension of righting reflex disappearance (mice [4]; administration 3): 259%; righting reflex disappearance time (mice [4]; administration 3): 10.4 min; Percentage of extension of righting reflex disappearance (mice [4]; administration 4): 300%; righting reflex disappearance time (mice [4]; administration 4): 12.1 min; Percentage of extension of righting reflex disappearance (mice [4]; administration 5): 292%; righting reflex disappearance time (mice [4]; administration 5): 11.7 min; Percentage of extension of righting reflex disappearance (mice [4]; administration 6): 378%; righting reflex disappearance time (mice [4]; administration 6): 15.2 min; Percentage of extension of righting reflex disappearance (mice [4]; administration 7): 439%; righting reflex disappearance time (mice [4]; administration 7): 17.6 min; Percentage of extension of righting reflex disappearance (mice [4]; administration 8): 404%; righting reflex disappearance time (mice [4]; administration 8): 16.2 min; Percentage of extension of righting reflex disappearance (mice [4]; administration 9): 426%; righting reflex disappearance time (mice [4]; administration 9): 17.1 min
CCOC(=O)CC[C@@H]1N=C(c2ccccn2)c2cc(CC)c(OC)cc2-n2c(C)cnc21.Cc1ccc(S(=O)(=O)O)cc1 [Compound 1-17] | 80 | 360 | 4.5 | 7.24 | 0.75 | 
COC(=O)CC[C@@H]1N=C(c2cccnc2)c2cc(F)c(C)cc2-n2c(C)cnc21.Cc1ccc(S(=O)(=O)O)cc1 [Compound 1-4] | 80 | 280 | 3.5 | 9.32 | 0.37 | 
COC(=O)CC[C@@H]1N=C(c2ccccn2)c2cc(F)c(C)cc2-n2c(C)cnc21.Cl [Compound 1-3] | 60 | 280 | 4.67 | 7.20 | 0.30 | 
COC(=O)CC[C@@H]1N=C(c2ccccn2)c2cc(Br)c(C)cc2-n2c(C)cnc21.Cc1ccc(S(=O)(=O)O)cc1 [Compound 1-6] | 100 | 380 | 3.8 | 7.98 | 0.47 | 
COC(=O)CC[C@@H]1N=C(c2ccccn2)c2cc([N+](=O)[O-])c(C)cc2-n2c(C)cnc21.Cc1ccc(S(=O)(=O)O)cc1 [Compound 1-7] | 40 | 240 | 6 | 8.39 | 0.60 | 
COC(=O)CC[C@@H]1N=C(c2ccccn2)c2cc(OC)c(C)cc2-n2c(C)cnc21.Cc1ccc(S(=O)(=O)O)cc1 [Compound 1-9] | 60 | 260 | 4.3 | 8.77 | 0.63 | 
COC(=O)CC[C@@H]1N=C(c2ccncc2)c2cc(F)c(C)cc2-n2c(C)cnc21.Cc1ccc(S(=O)(=O)O)cc1 [Compound 1-5] | 60 | 320 | 5.3 | 8.21 | 0.40 | 
COC(=O)CC[C@@H]1N=C(c2ccccn2)c2cc(Cl)c(Cl)cc2-n2c(C)cnc21.Cc1ccc(S(=O)(=O)O)cc1 [Compound 1-12] | 60 | 300 | 5 | 8.35 | 0.42 | 
COC(=O)CC[C@@H]1N=C(c2ccccn2)c2cc(OC)c(F)cc2-n2c(C)cnc21.Cc1ccc(S(=O)(=O)O)cc1 [Compound 1-15] | 60 | 320 | 5.3 | 9.02 | 0.54 | 

Source: patent US11919905B2, “Substituted benzo[f]imidazo[1,2-a][1,4]diazepines as anesthetics” (HANGZHOU ADAMERCK PHARMLABS INC., priority 2017, dated 2024)
